Test results from patent US9688709B2, “Phosphaplatins and their use for treatment of cancers” (OHIO UNIVERSITY, priority 2010, dated 2017).
Where “and” joins values, the source holds several entries; their conditions need not be identical. Identical values can stand only once.

Tests used:
[1] = system: A2780, epithelial human ovarian cancer; assay: Clonogenic assay, A2780 cells; format: cell-based
Method: (§1) To determine the relative activities of the phosphaplatins of formulas (I)-(VI), each stereoisomer was tested through in vitro clonogenic assays using human ovarian cancer cells, human colon cancer cells, and human head-and-neck cancer cells. […] Cells were cultured on monolayer using RPMI 1640 supplemented with 10% fetal bovine serum, 2 mM glutamine, 0.25 units/mL insulin and penicillin/streptomycin (100 units/mL) in a 37° C. incubator continuously gassed with 5% CO2. Cells were subcultured using 0.0625% trypsin in HBSS to maintain cells in exponential cell growth.
Half-maximal inhibitory concentration (IC50) values were determined using a clonogenic assay or a CyQUANT® cell proliferation assay. In the clonogenic assay, for example, 500-700 A2780 cells from a single cell suspension were plated onto 60 mm petri plates 24 hours before treatment with the platinum compounds to permit cell attachment. On the day of treatment with the platinum compounds described in the above Synthesis Examples, the medium was decanted and was replaced with the appropriate concentration of phosphaplatin compounds (from 50 nM to 75 μM) at three different time points, […] Triplicate plates were set up for each platinum compound concentration. […] These plates were returned to the 37° C. incubator for 7 days for colony formation.
(§2) In TABLES 1-5, except where actual error values are given, each reported value is assumed to have an error not greater than ±15% of the reported value; and unless otherwise specified, the data were obtained from clonogenic assays.
(§3) In further tests, cells were treated with the platinum compounds continuously for 7 days. Colonies were fixed and stained using 2% crystal violet in 4% formaldehyde. Colonies containing more than 50 cells were scored. The number of scored colonies from the triplicate plates was averaged, and this number was divided by the number of cells plated to obtain a value for the fraction of cells forming colonies. These values for fraction of cells forming colonies then were corrected for plating efficiency by dividing the fraction by the number of cells forming colonies in plates that were not treated with platinum compounds. […] Similar data for OVCAR-10 are shown in FIG. 3, comparing (1R,2R)-pyrodach-2 (RD2), (1R,2R)-pyrodach-4 (RD4), trans-(±)-pyrodach-2 (T-D2), and trans-(±)-pyrodach-4 (T-D4).

Ovarian tumor = Ovarian tumor inflicted SCID mice, tumor growth and log cell kill; format: in vivo
Method: Ovarian tumor inflicted SCID mice were treated with trans-(±)-pyrodach-2 and trans-(±)-pyrodach-4 at various doses up to 40 mg/kg, and tumor growth was monitored up to six weeks or until the tumor size became so large that these animals were sacrificed. The tumor growth or regression by the phosphaplatin-treated mice was then compared with cisplatin-treated mice (7 mg/kg) and carboplatin-treated mice (60 mg/kg). Three doses of platinum compounds were administered on alternate days when the tumor grew to a size of at least 100 mm^3 size. Gross and net log cell kill values were then calculated using the formulas:
[formula] [formula] where T and C are median times in days to grow tumor to a specified size, and Td is the median time in days to double the size of the tumor in control animals.

[2] = system: human ovarian cancer OVCAR-10 xenograft; assay: In vivo efficacy, OVCAR-10 mouse xenograft; design: species or system mice; settings: 60 mg/kg qodx3, time to tumor size 1000 mm^3, compared with control
Method: Stable human clonal ovarian cancer cell lines OVCAR-10 and head and neck cancer UMSCC10b were grown separately in cell culture until 80-90% confluency was reached. Trypsin (GIBCO/BRL, Grand Island, N.Y.) was used to detach adherent cells. Trypsinized cells were thoroughly washed with PBS (Phosphate Buffered Saline) to remove trypsin. Efficacy of phosphaplatin compounds were evaluated by subcutaneously implanting human OVCAR-10 and UMSCC-10b xenograft in SCID Hairless OutBred, SHO-Prkdc^scidHr^hr, (Charles River Labs, Wilmington, Mass.) mice, NIH (NIH III: NIHBNX-F; NIHS-Lystbg Foxnlnu Btkxid, 4-week old female, Taconic (Rensselaer, N.Y.) mice.
Female SCID/NIH mice 4-5 weeks old were acclimated for one week before initiation of efficacy trials. Cancer cells were re-suspended in PBS and all mice except for negative control mice were injected subcutaneously with from 1×10^6 cells/0.10 mL to 5×10^6 cells/0.10 mL in PBS. The tumor size was evaluated as a function of time. The mice were examined daily for tumor growth. Tumors were measured using digital calipers. The tumor volume was calculated by the formula (W^2×L)/2, where W is the tumor measurement at the widest point, and L is the tumor dimension at the longest point, where the volume of the tumor in mm^3 is equivalent to the weight in mg.
After approximately 2 weeks of the subcutaneous injection of cancer cells, the tumors that had reached a distinguishable tumor sizes (approximately 100 mm^3 to 200 mm^3), phosphaplatin compounds of desired doses were administered intra-peritoneally. These administrations were done one time on day 1, once on day 3, and once on day 5.
Each group of xenograft mice was treated with phosphaplatin compounds, and a matched set was treated with vehicle/placebo (PBS solution) and mock injection (as a control for stress response). […] The xenograft SCID mice/NIH were monitored every day for any adverse events in their health by measuring weight loss/gain and food consumption. Measurements were stopped and the study was ended when the tumor size exceeded 3000 mm^3. […]

[3] = system: A2780/C30, epithelial human ovarian cancer resistant to 30 μM cisplatin and 100 μM carboplatin; assay: Clonogenic assay, A2780/C30 cells; format: cell-based; settings: A2780/C30, 1 hour treatment
Method: as §1
Half-maximal inhibitory concentration (IC50) values were determined using a clonogenic assay or a CyQUANT® cell proliferation assay. In the clonogenic assay, for example, 500-700 A2780 cells from a single cell suspension were plated onto 60 mm petri plates 24 hours before treatment with the platinum compounds to permit cell attachment. On the day of treatment with the platinum compounds described in the above Synthesis Examples, the medium was decanted and was replaced with the appropriate concentration of phosphaplatin compounds (from 50 nM to 75 μM) at three different time points, […] Triplicate plates were set up for each platinum compound concentration. After the 24-hour treatment, the medium containing the platinum compounds was decanted and was replaced with fresh medium. These plates were returned to the 37° C. incubator for 7 days for colony formation.
as §2, §3

[4] = Maximum tolerated dose toxicity in ICR (CD-1) mice; format: in vivo; settings: dose of 60 mg/kg
Method: Escalating doses were administered from 10 mg/kg to 100 mg/kg in 4-5 week-old female ICR (CD-1) mice, Taconic (Rensselaer, N.Y.). The mice had body weights between 15 g and 24 g. The mice were injected with one of the phosphaplatins every other day in a three-dose regimen. Total body-weight loss of 20% or more, unthrifty appearance, failure to gain weight, other observable health issues, departures from normal behaviors, or death, were considered an adverse event.

[5] = system: OVCAR-10, human ovarian cancer resistant to cisplatin treatment; assay: Clonogenic assay, OVCAR-10 cells; format: cell-based; settings: OVCAR-10, 24 hours treatment
Method: as §1
Half-maximal inhibitory concentration (IC50) values were determined using a clonogenic assay or a CyQUANT® cell proliferation assay. In the clonogenic assay, for example, 500-700 A2780 cells from a single cell suspension were plated onto 60 mm petri plates 24 hours before treatment with the platinum compounds to permit cell attachment. On the day of treatment with the platinum compounds described in the above Synthesis Examples, the medium was decanted and was replaced with the appropriate concentration of phosphaplatin compounds (from 50 nM to 75 μM) at three different time points, and the treated cells were placed back into the 37° C. incubator for 24 hours. Triplicate plates were set up for each platinum compound concentration. After the 24-hour treatment, the medium containing the platinum compounds was decanted and was replaced with fresh medium. These plates were returned to the 37° C. incubator for 7 days for colony formation.
as §2, §3

[6] = system: head and neck cancer cell line UMSCC10b; assay: 144 hour exposure IC50, UMSCC10b; format: cell-based, human
Method: (§4) Additionally these isomeric compounds were also tested by exposing them for 144 hours in the following cell lines: UMSCC10b, Panc-1, UMSCC15s, A2780/C30 and HCC1806.

[7] = system: pancreatic cell line Panc-1; assay: 144 hour exposure IC50, Panc-1; format: cell-based; settings: Panc-1, 144 hours exposure
Method: as §4

[8] = system: OVCAR-5, advanced human ovarian cancer cells; assay: Clonogenic assay, OVCAR-5 cells; format: cell-based; settings: OVCAR-5, 24 hours treatment
Method: as §1
(§5) Half-maximal inhibitory concentration (IC50) values were determined using a clonogenic assay or a CyQUANT® cell proliferation assay. In the clonogenic assay, for example, 500-700 A2780 cells from a single cell suspension were plated onto 60 mm petri plates 24 hours before treatment with the platinum compounds to permit cell attachment. […]
(§6) In further tests, cells were treated with the platinum compounds continuously for 7 days. […] Colonies containing more than 50 cells were scored. The number of scored colonies from the triplicate plates was averaged, and this number was divided by the number of cells plated to obtain a value for the fraction of cells forming colonies. […]

[9] = system: OVCAR-10, human ovarian cancer resistant to cisplatin treatment; assay: CyQUANT cell proliferation assay, OVCAR-10; format: cell-based; settings: OVCAR-10, 72-hour treatment
Excerpt: (§7) In these experiments, desired number of cells were exposed to phosphaplatins of different concentrations for 72 hr. before measuring the DNA content. Because the DNA content is proportional to the number of surviving cells, the assay provides a quantitative measure of proliferating cells. The technique is described in detail in Jones et al., “Sensitive determination of cell number using the CyQUANT cell proliferation assay,” J. Immunol. Methods, vol. 254, pp. 85-98 (2001).
as §2

[10] = system: U251, human glioblastoma cancer cells; assay: CyQUANT cell proliferation assay, U251; format: cell-based; settings: U251, 72-hour treatment
Excerpt: as §7, §2

[11] = system: SKMEL-2, human skin melanoma cancer cells; assay: CyQUANT cell proliferation assay, SKMEL-2; format: cell-based; settings: SKMEL-2, 72-hour treatment
Excerpt: as §7, §2

[12] = system: PC-3, human metastatic prostate cancer cells; assay: CyQUANT cell proliferation assay, PC-3; format: cell-based; settings: PC-3, 72-hour treatment
Excerpt: as §7, §2

[13] = system: A549, human lung adenocarcinoma cancer cells; assay: CyQUANT cell proliferation assay, A549; format: cell-based; settings: A549, 72-hour treatment
Excerpt: as §7, §2

[14] = system: UMSCC10b/15s, cisplatin-resistant human head-and-neck cancer cell line; assay: Clonogenic assay, UMSCC10b/15s cells; format: cell-based; settings: 7-day treatment
Method: as §1, §5, §6

[15] = system: OVCAR-8, human ovarian cancer cells with dysfunctional p53; assay: CyQUANT cell proliferation assay, OVCAR-8; format: cell-based; settings: OVCAR-8, 72-hour treatment
Excerpt: as §7, §2

[16] = system: breast cancer cell line HCC1806; assay: 144 hour exposure IC50, HCC1806; format: cell-based; settings: HCC1806, 144 hours exposure
Method: as §4

PUMA = assay: Western blot protein expression, PUMA; format: in vivo; settings: treated mice, exposure 1 hour to 12 hours
Method: (§8) Following 12% SDS-PAGE electrophoresis, proteins were transferred to a PVDF membrane using 100 V for 1.5 hours at 4° C. Membranes were washed with 0.05% TWEEN-20 and Tris-buffered saline (TBST) solution and blocked with 5% non-fat dry milk and 1% BSA. The membrane was incubated with a 1:25,000 dilution of primary antibody of the protein of interest over night at 4° C. Membranes were washed with 0.05% TBST followed by incubating in the corresponding HRP-conjugated antibody (1:40,000 dilution). The proteins were visualized using ECL-Advance chemiluminescent system (Amersham-GE Healthcare Biosciences, Pittsburgh, Pa.).
(§9) The phosphaplatins activate a number of proapototic and tumor suppression genes such as FAS, PTEN, PUMA, BAX and others. Experiments through Western Blots confirm high levels of protein expressions transcribed by these genes. […] Likewise, BCL2 was down regulated as much as 70% by RR-pyrodach-2 and RR-pyrodach-4. Additionally, FAS, FADD, and platinum compound were co-localized in the lipid rafts. These activations are also associated with the increased expression of Sphingomyelinase (Smase), as verified by the increased protein expression of SMase.

VEGFR = assay: Western blot protein expression, VEGFR; format: in vivo; settings: treated mice, exposure 1 hour to 12 hours
Method: as §8, §9

FAS = assay: Western blot protein expression, FAS; format: in vivo; settings: treated mice, exposure 1 hour to 12 hours
Method: as §8, §9

BAX = assay: Western blot protein expression, BAX; format: in vivo; settings: treated mice, exposure 1 hour to 12 hours
Method: as §8, §9

[17] = 40 mg/kg, three doses on alternate days

Compound	IC50 ([1]; A2780, 1 hour treatment)	IC50 ([1]; A2780, 24 hours treatment) [µM]	IC50 [3] [µM]	IC50 [5] [µM]	IC50 [9] [µM]	IC50 [10] [µM]	IC50 [11] [µM]	IC50 [12] [µM]	IC50 [13] [µM]	IC50 [15] [µM]	other results
N.N.O=C([O-])C1(C(=O)[O-])CCC1.[Pt+2] [carboplatin]	90 µM	> 60	> 200	26.7	–	–	–	–	–	–	population died (Ovarian tumor; 60 mg/kg dose): more than 50%; log cell kill values (Ovarian tumor; 60 mg/kg, three doses on alternate days): less than 2; percent increased life-span (% ILS) [2]: about 125%; death [4]: 33%
NC1CCCCC1N.O=P([O-])(O)OP(=O)([O-])O.[Pt+2] (racemic) [trans-(±)-pyrodach-2, trans-(±)-1,2-cyclohexanediamine(pyrophosphato) platinum(II)]	22 ± 4 µM	2.4 ± 0.2	48 ± 5	4.6	11.8	10.1	8.3	24.5	11.1	9.4	IC50 [6]: 8.9 µM; IC50 [7]: 18.5 µM; IC50 [8]: 12.2 µM; IC50 [14]: 5 µM; IC50 [16]: > 30 µM
trans-(±)-1,2-cyclohexanediamine-trans-dihydroxo(pyrophosphato) platinum(IV) [trans-(±)-pyrodach-4]	180 µM and 170 µM	–	155 ± 20	14.4	23.2	14.6	14.6	20	12.2	12.3	gross log cell kill (Ovarian tumor; [17]): greater than 3; log net cell kill (Ovarian tumor; [17]): greater than 2; upregulation of PUMA (PUMA): up to 5 fold; down regulation of VEGFR (VEGFR): up to 50%; upregulation of FAS (FAS): up to 25 fold; upregulation of BAX (BAX): up to 4 fold
